Reference: US8946436B2, “Oxazolidinone compounds and their uses in preparation of antibiotics” (Sichuan Gooddoctor Pharmaceutical Group Co., Ltd., priority 2011, dated 2015)
≈ marks a conversion by molar mass, not a printed value. Where two headings read alike, the source gives them in different places.

Tests used:
S. pneumoniae = experiment: In vitro antibacterial activity (MIC), S. pneumoniae; format: cell-based; settings: S. pneumoniae (10 strains)
Experimental: The test strain was inoculated into the liquid medium and cultured at 37° C. for 16-18 h. The culture liquid and MH medium were put into two blank wells of a 96-well plate, respectively. Then, the absorptions thereof were measured by a Microplate reader. The difference between the absorption values of the culture liquid and MH medium is the adsorption of the bacteria. The concentration of the culture liquid can be calculated according to the formula of 1OD=50 million CFU/mL. The culture liquid was diluted with the MH bouillon culture medium to 5000 CFU/mL for further use.
Compounds 12a, 13 and 14 were dissolved in DMSO to 1 mg/mL, and then filtered with a 0.22 μm filter to obtain the compound solutions. And then they were gradually diluted to a desired concentration (10× final concentration) with the liquid medium, so as to obtain a series of dilutions. The final concentration grade of the dilutions of each tested compound consists of 14 concentrations, which includes: 0.03125 μg/mL, […], 0.125 μg/mL, 0.25 μg/mL, […], 1 μg/mL, 2 μg/mL, 4 μg/mL, 8 μg/mL, 16 μg/mL, 32 μg/mL, 64 μg/mL, 128 μg/mL and 256 μg/mL.
10 μL of each of the compound dilutions above was added into a well of a 96-well plate. 90 μL of the culture liquid (5000 CFU/mL) was added into each of the wells, respectively, mixed with the dilutions to render the tested compound concentration to the final concentration. The resulted mixture was incubated at 37° C. for 16-18 h, and then the OD630 thereof was measured. A culture liquid free of the tested compounds is used as a blank control, and three parallel tests with the same concentration of each compound were performed. The minimum inhibitory concentration (MIC) of each compound on the standard strain of Staphylococcus Aureus and other test strains was determined. Specifically, among the culture liquid contained in the wells of the micro-plate, the first three lowest concentrations under which growth of the test strains could be observed were chose for further evaluation of the MIC. A culture liquid free of tested compounds was used as a blank control. Each of the culture liquids was homogenized independently, and then was diluted with a sterile saline. Each of the diluted culture liquids was plated onto a MH bouillon plate and incubated at 37° C. for 20 h in incubator. After the incubation, the number of the colonies on each plate was counted. As compared with the blank control group, the lowest concentration of each of the test compound groups, at which 80% reduction in the colony number of the strains was achieved, was recorded as the MIC.

[1] = tested on: Enterococcus faecium-sensitive vancomycin; experiment: MIC against clinically isolated strains, vancomycin sensitive Enterococcus faecium; format: cell-based; settings: Enterococcus faecium-sensitive vancomycin (12 strains)
Description: Standard strains, including Staphylococcus aureus ATCC29213, S. pneumoniae ATCC49619, E. faecalis ATCC29212, are all available from the American Type Culture Collection.
Clinically isolated strains: There are total 120 clinical strains of gram-positive bacterium including: 37 strains of Staphylococcus aureus (consisting of 14 strains of methicillin sensitive Staphylococcus aureus MSSA and 23 strains of methicillin resistant Staphylococcus aureus MRSA); 27 strains of Streptococcus pneumoniae (consisting of 13 strains of penicillin sensitive Streptococcus pneumoniae PSSP and 14 strains of penicillin insensitive or resistant Streptococcus pneumoniae PISP+PRSP); 15 strains of Streptococcus pyogenes; 17 strains of Streptococcus agalactiae; 24 stains of Enterococcus faecium (consisting of 12 strains of vancomycin sensitive Enterococcus faecium and 12 strains of vancomycin resistant Enterococcus faecium).
(2) Tested compounds: Compound 13f was prepared by the methods above, with potency of over 98%; Linezolid was purchased from Pfizer, with potency of 100%.
Staphylococcus and Enterococcus faecium were incubated in Mueller-Hinton agar medium (MHA medium) at 35° C. for 16-20 h; S. pneumoniae was incubated in Cation-Adjusted Mueller-Hinton Broth medium (CAMHB medium) supplemented with 2.5-5.5% (v/v) lysed horse blood (LHB) at 35° C. for 20-24 h; and Streptococcus were incubated in sheep blood-containing medium (prepared by addition of 5% defibrinated sheep blood into MHA media) at 35° C. for 20-24 h in 5% CO2 environment (CO2 incubator). Before test of the compound activity, each stock of the bacteria strains was activated and colonized in the following manner: the stock was transferred and cultured in a liquid culture medium, the culture liquid was smeared onto an agar plate with an inoculating loop to obtain bacterial colonies on the plate after incubation, and then a colony of the bacteria was chose to be suspended into the liquid culture medium for performing the test of compound activity. As a result, fresh bacteria cells were applied to the test. The standard strains were used as sensitive bacterium to control the quality of the experiments, and a plate or tube containing no antibacterial compounds is used as a blank control for the growth of test strains.
The minimal inhibitory concentration (MIC) of the test compounds on the strains of Streptococcus pneumoniae was determined by a standard broth macrodilution method, while the MIC of the test compounds on the other bacteria stains was determined by standard agar double dilution methods. The concentration of the test compounds was in the range of 32 mg/L-0.016 mg/L. The bacterial suspensions to be tested were inoculated by a multipoint inoculator, and the inoculation amount at each point is 10^4 CFU. The MIC of the test compound to each strain of the bacteria was determined.

SMILES	MIC (S. pneumoniae)	MIC50 [1]	MIC90 [1]	MICmode [1]	MICrange [1]	MIC (S. pneumoniae; Streptococcus pneumoniae, read-out: MIC)
CC(=O)NC[C@H]1CN(c2ccc(N3CCOCC3)c(F)c2)C(=O)O1 [Linezolid, reference compound]	2 to 32 µg/mL	0.001 µg/mL (≈ 0.00296 µM)	0.001 µg/mL (≈ 0.00296 µM)	1 µg/L	1 to 2 µg/L	–
CC(=O)NC[C@H]1CN(c2ccc(-n3cc(-c4ccccn4)cn3)c(F)c2)C(=O)O1 [Compound 13f, (S)-N-((3-(3-fluoro-4-(4-(pyridin-2-yl)-1H-pyrazol-1-yl)phenyl)-2-oxooxazolidin-5-yl)methyl)acetamide]	–	–	–	1 µg/L	1 to 2 µg/L	0.25 to 1 µg/mL (≈ 0.632 to 2.53 µM)
